{
  "source": "paper PMC11157767",
  "about": "(Molecular Cancer, 2024)",
  "test_system": "TFG-MET allograft tumors",
  "assay": "RNA-sequencing, differential expression and GSEA of TFG-MET allograft tumors",
  "format": "in vivo, mouse",
  "details": "GSEA CAP vs Veh, C5 GO CC",
  "method": "Error bars display standard error of mean, statistical significance was determined using t-test analysis. (****;p<0.0001, ***;p<0.001, **;p<0.01, *;p<0.05). […] Each dot represents an individual replicate. Error bars display standard error of the mean.\nEach dot represents one gene.",
  "data": [
    {"smiles": "CNC(=O)c1ccc(-c2cnc3ncc(Cc4ccc5ncccc5c4)n3n2)cc1F", "note": "[Capmatinib]", "values": [
      {"measurement": "NES GOCC_U12_TYPE_SPLICEOSOMAL_COMPLEX", "setting": "padj 0.00985351", "value": -1.841},
      {"measurement": "NES GOCC_ENDOCYTIC_VESICLE_MEMBRANE", "setting": "padj 0.00993117", "value": 1.48},
      {"measurement": "NES GOCC_MAIN_AXON", "setting": "padj 0.0105942", "value": 1.71},
      {"measurement": "NES GOCC_CILIARY_TIP", "setting": "padj 0.0106966", "value": 1.78},
      {"measurement": "NES GOCC_CILIARY_BASAL_BODY", "setting": "padj 0.0123456", "value": 1.449},
      {"measurement": "NES GOCC_RNA_POLYMERASE_III_COMPLEX", "setting": "padj 0.0128749", "value": -1.798},
      {"measurement": "NES GOCC_CATION_CHANNEL_COMPLEX", "setting": "padj 0.0130428", "value": 1.45},
      {"measurement": "NES GOCC_PROTON_TRANSPORTING_TWO_SECTOR_ATPASE_COMPLEX_CATALYTIC_DOMAIN", "setting": "padj 0.0138609", "value": 1.892},
      {"measurement": "NES GOCC_SPECIFIC_GRANULE_MEMBRANE", "setting": "padj 0.0141171", "value": 1.543},
      {"measurement": "NES GOCC_SWI_SNF_SUPERFAMILY_TYPE_COMPLEX", "setting": "padj 0.0141171", "value": -1.631},
      {"measurement": "NES GOCC_U1_SNRNP", "setting": "padj 0.015809", "value": -1.765},
      {"measurement": "NES GOCC_MICROBODY", "setting": "padj 0.0162979", "value": 1.4892},
      {"measurement": "NES GOCC_CHAPERONE_COMPLEX", "setting": "padj 0.0163882", "value": -1.777},
      {"measurement": "NES GOCC_SPINDLE", "setting": "padj 0.0181265", "value": -1.395},
      {"measurement": "NES GOCC_AUTOPHAGOSOME_MEMBRANE", "setting": "padj 0.0181579", "value": 1.734},
      {"measurement": "NES GOCC_DNA_POLYMERASE_COMPLEX", "setting": "padj 0.0181579", "value": -1.786},
      {"measurement": "NES GOCC_P_BODY", "setting": "padj 0.0181579", "value": -1.619},
      {"measurement": "NES GOCC_MHC_CLASS_I_PROTEIN_COMPLEX", "setting": "padj 0.0188701", "value": 1.849},
      {"measurement": "NES GOCC_AZUROPHIL_GRANULE_MEMBRANE", "setting": "padj 0.0193916", "value": 1.659},
      {"measurement": "NES GOCC_EXOCYTIC_VESICLE", "setting": "padj 0.0193916", "value": 1.3878},
      {"measurement": "NES GOCC_EXON_EXON_JUNCTION_COMPLEX", "setting": "padj 0.0194501", "value": -1.776},
      {"measurement": "NES GOCC_SPLICEOSOMAL_TRI_SNRNP_COMPLEX", "setting": "padj 0.0201459", "value": -1.73},
      {"measurement": "NES GOCC_PLASMA_MEMBRANE_PROTEIN_COMPLEX", "setting": "padj 0.0211865", "value": 1.208},
      {"measurement": "NES GOCC_SPINDLE_POLE", "setting": "padj 0.0236958", "value": -1.485},
      {"measurement": "NES GOCC_CYTOPLASMIC_REGION", "setting": "padj 0.0239917", "value": 1.358},
      {"measurement": "NES GOCC_RIBOSOME", "setting": "padj 0.0240328", "value": -1.42},
      {"measurement": "NES GOCC_RNA_POLYMERASE_II_HOLOENZYME", "setting": "padj 0.0260741", "value": -1.585},
      {"measurement": "NES GOCC_PROTEIN_LIPID_COMPLEX", "setting": "padj 0.030494", "value": 1.7122},
      {"measurement": "NES GOCC_CENTROSOME", "setting": "padj 0.0306446", "value": -1.299},
      {"measurement": "NES GOCC_PROTEASOME_CORE_COMPLEX", "setting": "padj 0.0307775", "value": 1.722},
      {"measurement": "NES GOCC_PROTON_TRANSPORTING_V_TYPE_ATPASE_COMPLEX", "setting": "padj 0.0307775", "value": 1.755},
      {"measurement": "NES GOCC_SNARE_COMPLEX", "setting": "padj 0.0312218", "value": 1.596},
      {"measurement": "NES GOCC_BLOC_COMPLEX", "setting": "padj 0.0315137", "value": 1.832},
      {"measurement": "NES GOCC_INTRACILIARY_TRANSPORT_PARTICLE_B", "setting": "padj 0.0329395", "value": 1.825},
      {"measurement": "NES GOCC_POLYSOMAL_RIBOSOME", "setting": "padj 0.0334435", "value": -1.667},
      {"measurement": "NES GOCC_AP_TYPE_MEMBRANE_COAT_ADAPTOR_COMPLEX", "setting": "padj 0.0422332", "value": 1.673},
      {"measurement": "NES GOCC_9PLUS0_NON_MOTILE_CILIUM", "setting": "padj 0.0467153", "value": 1.3799},
      {"measurement": "NES GOCC_PROTON_TRANSPORTING_ATP_SYNTHASE_COMPLEX", "setting": "padj 0.0488031", "value": 1.779},
      {"measurement": "NES GOCC_SEX_CHROMOSOME", "setting": "padj 0.0490653", "value": -1.646},
      {"measurement": "NES GOCC_U2_SNRNP", "setting": "padj 0.0543003", "value": -1.648},
      {"measurement": "NES GOCC_ENDOCYTIC_VESICLE", "setting": "padj 0.0582082", "value": 1.305},
      {"measurement": "NES GOCC_HIGH_DENSITY_LIPOPROTEIN_PARTICLE", "setting": "padj 0.0591592", "value": 1.639},
      {"measurement": "NES GOCC_REPLISOME", "setting": "padj 0.0619841", "value": -1.586},
      {"measurement": "NES GOCC_ANCHORED_COMPONENT_OF_MEMBRANE", "setting": "padj 0.0629656", "value": 1.328},
      {"measurement": "NES GOCC_INTRINSIC_COMPONENT_OF_SYNAPTIC_VESICLE_MEMBRANE", "setting": "padj 0.0629656", "value": 1.526},
      {"measurement": "NES GOCC_MULTIVESICULAR_BODY", "setting": "padj 0.063611", "value": 1.4828},
      {"measurement": "NES GOCC_NURD_COMPLEX", "setting": "padj 0.0667331", "value": -1.604},
      {"measurement": "NES GOCC_CYTOPLASMIC_MICROTUBULE", "setting": "padj 0.0742121", "value": 1.415},
      {"measurement": "NES GOCC_PHOTORECEPTOR_CONNECTING_CILIUM", "setting": "padj 0.0825356", "value": 1.523},
      {"measurement": "NES GOCC_REGION_OF_CYTOSOL", "setting": "padj 0.0834337", "value": -1.574},
      {"measurement": "NES GOCC_FILOPODIUM_MEMBRANE", "setting": "padj 0.0837675", "value": -1.564}
    ]}
  ]
}
